Consider 33 sequences from publication PMC7483518, “Destabilizing single chain major histocompatibility complex class I protein for repurposed enterokinase proteolysis” (Scientific Reports, 2020).

Like-named read-outs stand apart in the source and are kept apart here.

Experiment [1] has as its system HLA-A*11:01 single chain protein. Format: biochemical, Human. Further details: EZ50kDa / EZ50kD (pH 6.2) / EZ50kD (pH 8) / EZ50kD (normalised: EBV1101 = 1, EBV0201 = 0) / EZ50kDa rank: unit not given beside the values.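 On EZ50kD (pH 6.2): scaled with positive control peptide as 1 and negative control peptide as 0.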
Experiment [2] deals with photolabile unchained HLA-A*11:01 pMHC-I protein (Homo sapiens, UniProt P04439, A114D/D185E/E176A/F33Y/L180Q/S129P/T187R). The experiment in a line: ELISA with photolabile unchained pMHC-I protein and UV irradiation. Format: binding. To be noted: for ELISA450nm: Table 2, 62.5 nM photolabile pMHC-I mixture, 5 μM peptide in PBS, UV 365 nm 2 × 5 min on ice, 2 h room temperature on anti-β2m plate, Abs450nm − Abs570nm, instability cutoff < 0.6. (An ELISA detects its analyte on a solid surface through an enzyme-linked reagent.)

The mark [3] stands for this setting: EASY MHC-I A*11:01, 2019-07-26, mean of the 2 replicates.
The mark [4] stands for this setting: EASY MHC-I A*11:01, 2019-07-25, mean of the 2 replicates.
Where [5] appears, read: EASY MHC-I A*11:01, gel 2019-07-17 lr1028-1036 5min, replicate 1 (lanes 1-14).
Setting [6] is: EASY MHC-I A*11:01, gel 2019-07-17 lr1028-1036 5min, replicate 2 (lanes 15-28).
Setting [7] is: EASY MHC-I A*11:01, run 2019-08-08, 5min, mean of 2 replicates.

The sequence TSTVQLIMQLMP [TM1042] had an EZ_mean in experiment [1] of -0.1051. The EASY_mean in experiment [2] (ELISA signal, mean, […]) was -0.04181.

AIKTSPKANKE [EX1019] yielded an EZ_mean in experiment [1] (setting [3]) of -0.09791. Further, in experiment [2] ([…], mean, STDEV), the EASY_mean came to 0.001081. The sequence IKTSPKANKE [EX1013] displayed an EZ_mean in experiment [1] (setting [4]) of -0.04249. Moreover, the EASY_mean in experiment [2] ([…], mean, STDEV) is recorded as -0.007577. In turn, FGRAKLLGAEE [LR1036] came in with an EZ_mean in experiment [1] (EASY MHC-I A*11:01, gel 2019-07-17 lr1028-1036 5min, mean of 2 replicates) of -0.05281. Also, in experiment [1] (setting [5]), the “EZ50kD (normalised: EBV1101 = 1, EBV0201 = 0)” value is -0.07114 and the “Norm (50 kDa band adj. volume normalised: Undig_37C = 1, Dig_37C = 0)” value is reported as -0.06733. Also, in experiment [1] (setting [6]), the “EZ50kD (normalised: EBV1101 = 1, EBV0201 = 0)” value was -0.03448 and the “Norm (50 kDa band adj. volume normalised: Undig_37C = 1, Dig_37C = 0)” value is given as -0.02973. The same sequence returned an EASY_mean in experiment [2] of -0.04853. As to FGRAKLLGAE [LR1025], in experiment [1], the EZ_mean is reported as -0.04476. The same sequence registered an EASY_mean in experiment [2] (ELISA signal, mean, […]) of -0.01153. In experiment [1] (EASY MHC-I A*11:01, run 2019-08-07, 5min, mean of 2 replicates), VQLIMQLMP [TM1013] gave an EZ_mean of -0.1096. Further, the EASY_mean in experiment [2] ([…], mean, STDEV) is on record as -0.03636.

IKTSPKANK [EX1007]: the EZ_mean in experiment [1] (setting [4]) is reported as -0.05095. In experiment [2] ([…], mean, STDEV), the EASY_mean is given as -0.0128. Regarding VAIKTSPKA [EX1005], the EZ_mean in experiment [1] (setting [4]) is -0.02025. In experiment [2] ([…], mean, STDEV), this sequence displayed an EASY_mean of 0.004482. In experiment [1] (setting [7]), LTSTVQLIMQ [TM1019] came in with an EZ_mean of -0.0385 and a Norm_mean of -0.02611. The sequence also returned an EASY_mean in experiment [2] ([…], mean, STDEV) of -0.02206. KTSPKANKEIL [EX1021]: the EZ_mean in experiment [1] (setting [3]) is listed as -0.102. In addition, the EASY_mean in experiment [2] ([…], mean, STDEV) is reported as -0.001833. Regarding VQLIMQLMPFGC [TM1045], the EZ_mean in experiment [1] was -0.1164. Further, in experiment [2] (ELISA signal, mean, […]), the EASY_mean is reported as -0.05081. With TQLMPFGSLLD [CS1031], in experiment [1], the EZ_mean is -0.07663. The sequence also came in with an EASY_mean in experiment [2] of -0.03382. For AIKTSPKA [EX1001], the EZ_mean in experiment [1] is -0.04572. In addition, in experiment [2], the EASY_mean is on record as -0.01453. Take SSCSSCPLSK [reference compound]: the “EZ50kD (pH 6.2)” value is listed as 0.6649 in experiment [1] (Table 2, pH 6.2, 37 °C, enterokinase, Eq. (4), instability cutoff < 0.3) and 0.9576 in experiment [1] (pH 6.2). Further, the “EZ50kD (pH 8)” value in experiment [1] (pH 8) was 0.8409. In experiment [2], the ELISA450nm amounted to 1.272. The sequence TVQLIMQL [TM1003] showed an EZ_mean in experiment [1] (EASY MHC-I A*11:01, run 2019-08-06, 5min, mean of 2 replicates) of -0.09825. In addition, in experiment [2] ([…], mean, STDEV), the EASY_mean is recorded as -0.03257.

Sequence TDFGRAKLLG [LR1023] had an EZ_mean in experiment [1] of -0.0651. Besides, in experiment [2] ([…], mean, STDEV), the EASY_mean is -0.02398. For LIMQLMPFGCL [TM1036], in experiment [1], the EZ_mean is given as -0.1248. Besides, the EASY_mean in experiment [2] (ELISA signal, mean, […]) is recorded as -0.07162. Turning to GLSPTVWLSA [reference compound], the ELISA450nm in experiment [2] came to 0.2488. On to “LLAQFTSAL [putative peptide, HBV, no IEDB entry]”, for which the ELISA450nm in experiment [2] worked out at 0.214. For the sequence LMPFGSLLDYVR [CS1045], in experiment [2], the EASY_mean was found to be 0.002285. Take “TVVRRRCRSPR [putative peptide, HBV, no IEDB entry]”: in experiment [2], the ELISA450nm is on record as 0.4145. The sequence GSLLDYVREH [CS1026] came in with an EASY_mean in experiment [2] of -0.04117. Regarding TVIRRRGR [reference compound], in experiment [2], the ELISA450nm was 0.1482.

With “TVVRRRCR [putative peptide, HBV, no IEDB entry]”, the ELISA450nm in experiment [2] turned out to be 0.4625. On the same count and under the same terms, as for “RSQSPRRR [putative peptide, HBV, no IEDB entry]”, the figure is 0.1859.

In the case of PFGSLLDYVRE [CS1035], the EASY_mean in experiment [2] is -0.00332. As for “NILNPFLPLL [putative peptide, HBV, no IEDB entry]”, the ELISA450nm in experiment [2] is on record as 0.2827. Regarding FIDSYICQV [reference compound], the ELISA450nm in experiment [2] was 0.3491. In the case of LNIDLLWSV [reference compound], the ELISA450nm in experiment [2] was found to be 0.2738. Turning to RTQSPRRR [reference compound], the ELISA450nm in experiment [2] came to 0.3319. For the sequence PFGSLLDYVREH [CS1047], the EASY_mean in experiment [2] is recorded as -0.01054. With FLLTKILTI [reference compound], the ELISA450nm in experiment [2] turned out to be 0.1791. On to KFLPDLYDYK [reference compound], for which the ELISA450nm in experiment [2] came out at 0.4809.
